From patent US20220024882A1, “NOVEL TUMOR ANTIGEN BINDING AGENTS AND USES THEREOF” (ITM Isotopen Technologien München AG, priority 2018, published 2022)

Legend:
PSMA = biological target: T1, PSMA (Homo sapiens, UniProt Q04609); test: Determination of KD values (PSMA-binding affinity); conditions: PSMA-binding affinity of the 177Lu radioligand
T1 construct: expressed in transfected cells; host or cells: PC-3 PIP (PSMA-transfected PC-3 human prostate cancer cells), from Prof; Martin Pomper
Method: The KD values, indicating the PSMA-binding affinity of the novel radioligand, were determined.

[1] = n-Octanol/PBS distribution coefficient (log D); assay type: physicochemical
Method: The n-octanol/PBS distribution coefficient of the five exemplified PSMA-binding agents ^177Lu-Ibu-PSMA, ^177Lu-Ibu-Dα-PSMA, ^177Lu-Ibu-Dβ-PSMA, ^177Lu-Ibu-N-PSMA and ^177Lu-Ibu-DAB-PSMA in a n-octanol/PBS system was performed in a similar manner as previously reported (Benesova, M.; Umbricht, C. A.; Schibli, R.; Müller, C. Albumin-binding PSMA ligands: optimization of the tissue distribution profile. Mol Pharm 2018, 15, (3), 934-946).

Radiolytic stability = assay type: physicochemical; conditions: 250 MBq/500 μL saline, room temperature, with or without L-ascorbic acid
Method: Radiolytic stability over time was assessed for Ibu-sPSMA in three independent experiments. For this purpose, Ibu-sPSMA was labeled with ^177Lu in a volume of 120 μL at a specific activity of 50 MBq/nmol with or without the addition of L-ascorbic acid (3 mg). After quality control using HPLC (t=0, radiochemical purity ≥98%), the labeling solutions were diluted with saline to 250 MBq/500 μL and incubated at room temperature. The radioligand's integrity was determined by HPLC after 1 h, 4 h and 24 h incubation time as previously reported (Siwowska et al., Mol. Pharmaceutical 2017, 14, (2), 523-532). The HPLC chromatograms were analyzed by integration of the peaks representing the radiolabeled product, the released ^177Lu as well as degradation products of unknown structure (FIG. 15). A quantitative assessment was performed by expressing the peak area of the intact product as percentage of the sum of integrated peak areas of the entire chromatogram.

[2] = Plasma protein binding, ultrafiltration assay; assay type: in vitro ADME; conditions: incubated in human plasma at 37° C., read-out: fraction of radioligand retained in the filter membrane (serum protein binding) (converted)
Method: In short, the PSMA-ligands were labeled with ^177Lu at a specific activity of 50 MBq/nmol and incubated in human plasma samples or PBS at room temperature. The free and plasma-bound fractions were separated using a centrifree ultrafiltration device (4104 centrifugal filter units; Millipore, 30000 Da nominal molecular weight limit, methylcellulose micropartition membranes). The incubated solution was loaded to the ultrafiltration device and centrifuged at 2500 rpm for 40 min at 20° C. Samples from the filtrate were taken and analyzed for radioactivity in a γ-counter. The amount of plasma-bound radioligand was calculated as the fraction of radioactivity measured in the […] relative to the corresponding loading solution (set to 100%). The experiments were performed at least 3 times for each radioligand.
Plasma protein-binding properties of ^177Lu-Ibu-sPSMA were determined using an ultrafiltration assay according to Benesova, M. et al. (Mol Pharm 2018, 15, (3), 934-946). In short, the Ibu-sPSMA-ligand was labeled with ^177Lu at a molar activity of 50 MBq/nmol and incubated in human plasma samples or PBS at 37° C. […] Samples from the filtrate were taken and analyzed for radioactivity in a γ-counter. The amount of plasma-bound radioligand was calculated as the fraction of radioactivity measured in the […] relative to the corresponding loading solution (set to 100%). […]

T1 sequence (Q04609 whole entry): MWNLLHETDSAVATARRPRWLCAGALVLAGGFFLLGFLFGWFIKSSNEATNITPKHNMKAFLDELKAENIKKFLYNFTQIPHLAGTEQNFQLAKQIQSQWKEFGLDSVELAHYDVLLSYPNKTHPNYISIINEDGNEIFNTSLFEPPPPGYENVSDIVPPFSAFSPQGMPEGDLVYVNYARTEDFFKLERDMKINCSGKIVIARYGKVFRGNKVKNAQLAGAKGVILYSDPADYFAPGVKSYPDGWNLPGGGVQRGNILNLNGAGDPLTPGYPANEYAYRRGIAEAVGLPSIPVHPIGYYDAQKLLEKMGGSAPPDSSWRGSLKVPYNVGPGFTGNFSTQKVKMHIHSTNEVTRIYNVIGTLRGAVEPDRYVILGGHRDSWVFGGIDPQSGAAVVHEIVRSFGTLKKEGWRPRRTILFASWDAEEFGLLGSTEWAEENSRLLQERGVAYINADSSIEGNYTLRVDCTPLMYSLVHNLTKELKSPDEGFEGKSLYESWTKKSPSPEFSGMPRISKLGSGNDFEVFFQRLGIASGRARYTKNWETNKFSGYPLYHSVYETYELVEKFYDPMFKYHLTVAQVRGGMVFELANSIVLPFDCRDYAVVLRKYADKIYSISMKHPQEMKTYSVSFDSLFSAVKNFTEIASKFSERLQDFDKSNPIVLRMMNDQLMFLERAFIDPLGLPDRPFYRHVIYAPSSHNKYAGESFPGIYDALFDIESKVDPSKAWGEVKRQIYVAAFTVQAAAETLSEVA

Question: What does the source list for `CC(C)Cc1ccc(C(C)C(=O)NCC[C@H](NC(=O)CN2CCN(CC(=O)O)CCN(CC(=O)O)CCN(CC(=O)O)CC2)C(=O)NCC2CCC(C(=O)N[C@@H](Cc3ccc4ccccc4c3)C(=O)NCCCC[C@H](NC(=O)N[C@@H](CCC(=O)O)C(=O)O)C(=O)O)CC2)cc1` (stereo partly shown) [^177Lu-Ibu-sPSMA, metal not drawn]?
Answer: Kd (PSMA): 40 ± 5 nM; logD [1]: -2.43 ± 0.01; radiolytic stability (percentage of intact radioligand up to 24 h) (Radiolytic stability): significantly more stable than ^177Lu-PSMA-617 and all other ibuprofen-derivatized PSMA radioligands; fraction unbound [2]: ~0.03
